Measurements taken from ChEMBL document CHEMBL2057167, “Rapid identification of ETP-46992, orally bioavailable PI3K inhibitor, selective versus mTOR” (Bioorg Med Chem Lett, 2012).
Activity calls are given as the source filed them. The rule behind the calls is not given here.

Legend:
[1] = molecular target: T1, Phosphatidylinositol 4,5-bisphosphate 3-kinase catalytic subunit alpha isoform (Homo sapiens, UniProt P42336); test: Inhibition of PI3Kalpha-mediated AKT phosphorylation at Ser473 in human U2OS cells by Western blot analysis; assay type: cell-based
T1 sequence (P42336 whole entry, canonical isoform): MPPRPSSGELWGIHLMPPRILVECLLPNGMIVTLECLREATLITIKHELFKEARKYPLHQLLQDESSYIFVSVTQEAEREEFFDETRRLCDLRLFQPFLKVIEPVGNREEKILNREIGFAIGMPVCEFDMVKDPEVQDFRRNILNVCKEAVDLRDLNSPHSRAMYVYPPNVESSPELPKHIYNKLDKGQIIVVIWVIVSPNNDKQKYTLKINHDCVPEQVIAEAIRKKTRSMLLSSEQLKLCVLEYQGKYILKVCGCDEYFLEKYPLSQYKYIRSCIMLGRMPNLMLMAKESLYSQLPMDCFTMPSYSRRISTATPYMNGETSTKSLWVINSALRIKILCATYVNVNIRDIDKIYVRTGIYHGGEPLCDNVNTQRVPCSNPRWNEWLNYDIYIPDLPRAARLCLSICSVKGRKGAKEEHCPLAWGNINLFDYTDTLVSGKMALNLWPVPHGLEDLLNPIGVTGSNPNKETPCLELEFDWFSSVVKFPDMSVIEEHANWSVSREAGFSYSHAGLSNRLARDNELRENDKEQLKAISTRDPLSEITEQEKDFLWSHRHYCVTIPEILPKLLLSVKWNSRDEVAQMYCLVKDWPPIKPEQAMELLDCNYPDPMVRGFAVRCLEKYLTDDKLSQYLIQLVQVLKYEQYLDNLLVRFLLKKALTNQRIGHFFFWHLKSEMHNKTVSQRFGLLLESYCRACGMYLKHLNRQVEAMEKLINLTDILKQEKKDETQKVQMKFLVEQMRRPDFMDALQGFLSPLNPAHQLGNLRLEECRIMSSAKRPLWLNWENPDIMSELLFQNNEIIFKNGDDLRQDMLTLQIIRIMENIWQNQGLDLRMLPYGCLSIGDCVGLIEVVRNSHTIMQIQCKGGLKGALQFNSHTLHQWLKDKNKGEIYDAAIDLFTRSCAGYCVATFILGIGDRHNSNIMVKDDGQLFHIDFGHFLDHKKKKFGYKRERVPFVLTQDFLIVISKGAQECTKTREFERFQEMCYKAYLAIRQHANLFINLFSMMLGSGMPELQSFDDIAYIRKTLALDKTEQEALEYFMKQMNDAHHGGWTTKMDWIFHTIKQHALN

[2] = molecular target: Serine/threonine-protein kinase mTOR (Homo sapiens, UniProt P42345); test: Inhibition of mTOR
[3] = molecular target: T1, Phosphatidylinositol 4,5-bisphosphate 3-kinase catalytic subunit alpha isoform; test: Inhibition of PI3Kalpha assessed as accumulation of ADP
[4] = molecular target: Phosphatidylinositol 4,5-bisphosphate 3-kinase catalytic subunit beta isoform (Homo sapiens, UniProt P42338); test: Inhibition of human PI3Kbeta by HTRF assay; details: read-out: Ki(app)
Chain of Phosphatidylinositol 4,5-bisphosphate 3-kinase catalytic subunit beta isoform (P42338 whole entry, canonical isoform): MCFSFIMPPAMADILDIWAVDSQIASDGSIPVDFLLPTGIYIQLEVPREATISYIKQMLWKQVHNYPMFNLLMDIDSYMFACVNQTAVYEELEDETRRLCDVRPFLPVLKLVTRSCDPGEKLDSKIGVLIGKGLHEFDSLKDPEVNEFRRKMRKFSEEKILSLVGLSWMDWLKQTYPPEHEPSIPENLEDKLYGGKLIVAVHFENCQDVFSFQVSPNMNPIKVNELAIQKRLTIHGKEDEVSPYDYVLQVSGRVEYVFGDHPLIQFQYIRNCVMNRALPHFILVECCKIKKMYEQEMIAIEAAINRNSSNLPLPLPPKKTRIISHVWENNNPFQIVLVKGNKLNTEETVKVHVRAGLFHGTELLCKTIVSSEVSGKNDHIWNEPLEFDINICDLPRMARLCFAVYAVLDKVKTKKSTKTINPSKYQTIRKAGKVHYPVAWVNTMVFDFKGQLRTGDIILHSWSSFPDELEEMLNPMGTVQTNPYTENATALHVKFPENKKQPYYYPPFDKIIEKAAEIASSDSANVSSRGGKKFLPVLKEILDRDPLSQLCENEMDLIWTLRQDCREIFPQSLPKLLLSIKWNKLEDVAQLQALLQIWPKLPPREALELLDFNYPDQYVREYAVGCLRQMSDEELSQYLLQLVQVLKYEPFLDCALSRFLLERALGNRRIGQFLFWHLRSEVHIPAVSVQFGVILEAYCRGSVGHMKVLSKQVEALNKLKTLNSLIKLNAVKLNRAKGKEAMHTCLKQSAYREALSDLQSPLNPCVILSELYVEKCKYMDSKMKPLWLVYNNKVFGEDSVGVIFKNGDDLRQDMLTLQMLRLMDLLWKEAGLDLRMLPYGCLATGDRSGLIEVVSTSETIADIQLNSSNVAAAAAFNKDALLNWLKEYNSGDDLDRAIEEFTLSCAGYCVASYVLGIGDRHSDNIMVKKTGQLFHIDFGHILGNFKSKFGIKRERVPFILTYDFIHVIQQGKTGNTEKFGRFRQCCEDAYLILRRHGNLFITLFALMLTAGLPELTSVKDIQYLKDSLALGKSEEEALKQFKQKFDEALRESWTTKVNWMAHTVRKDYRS

[5] = molecular target: T2, Phosphatidylinositol 4,5-bisphosphate 3-kinase catalytic subunit delta isoform (Homo sapiens, UniProt O00329); test: Inhibition of human PI3Kdelta by HTRF assay; details: read-out: Ki(app)
T2 sequence (O00329 whole entry): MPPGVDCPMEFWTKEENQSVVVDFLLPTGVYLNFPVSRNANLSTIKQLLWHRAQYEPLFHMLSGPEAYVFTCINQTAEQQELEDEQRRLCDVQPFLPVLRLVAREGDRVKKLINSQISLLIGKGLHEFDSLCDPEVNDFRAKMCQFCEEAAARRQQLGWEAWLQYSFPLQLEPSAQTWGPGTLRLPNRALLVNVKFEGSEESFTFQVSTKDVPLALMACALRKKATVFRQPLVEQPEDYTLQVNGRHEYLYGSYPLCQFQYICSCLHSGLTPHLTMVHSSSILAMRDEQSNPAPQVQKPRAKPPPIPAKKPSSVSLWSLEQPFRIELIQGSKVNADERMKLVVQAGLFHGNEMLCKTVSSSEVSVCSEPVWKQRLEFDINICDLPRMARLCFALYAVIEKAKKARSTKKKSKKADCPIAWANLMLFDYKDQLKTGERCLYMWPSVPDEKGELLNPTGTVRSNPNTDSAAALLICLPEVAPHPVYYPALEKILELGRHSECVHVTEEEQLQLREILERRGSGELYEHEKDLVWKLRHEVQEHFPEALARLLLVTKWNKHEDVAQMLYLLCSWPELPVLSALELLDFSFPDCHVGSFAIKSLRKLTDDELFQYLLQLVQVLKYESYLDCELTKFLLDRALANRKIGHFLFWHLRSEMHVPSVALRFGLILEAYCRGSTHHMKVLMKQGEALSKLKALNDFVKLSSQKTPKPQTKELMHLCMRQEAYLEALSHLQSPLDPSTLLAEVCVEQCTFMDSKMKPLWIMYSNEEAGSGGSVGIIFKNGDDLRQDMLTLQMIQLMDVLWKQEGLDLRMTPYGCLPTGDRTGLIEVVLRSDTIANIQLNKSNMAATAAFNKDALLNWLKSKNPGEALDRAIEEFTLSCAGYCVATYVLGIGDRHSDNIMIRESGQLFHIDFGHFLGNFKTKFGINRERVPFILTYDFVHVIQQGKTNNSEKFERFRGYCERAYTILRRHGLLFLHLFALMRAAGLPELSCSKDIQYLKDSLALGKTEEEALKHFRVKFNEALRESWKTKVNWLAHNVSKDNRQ

[6] = molecular target: Phosphatidylinositol 4,5-bisphosphate 3-kinase catalytic subunit gamma isoform (Homo sapiens, UniProt P48736); test: Inhibition of PI3Kgamma assessed as accumulation of ADP; details: read-out: Ki(app)
Mus musculus [7] = test: Down regulation of phosphorylated AKT at S473 level in GEMM mouse lung tumor model driven by KRasG12V oncogenic mutation tumor at 10 mg/kg, po after 1 hr by Western blot analysis; assay type: functional
Mus musculus [8] = test: Antitumor activity in GEMM mouse lung tumor model driven by KRasG12V oncogenic mutation assessed as tumor growth inhibition at 25 mg/kg, po qd for weekly 5 days for 3 weeks; assay type: functional; details: read-out: GI
Mus musculus [9] = species on record: Mus musculus; test: Reduction of [18F]-FDG uptake in GEMM mouse lung tumor model driven by KRasG12V oncogenic mutation tumor after 45 mins by PET-CT analysis; assay type: functional; details: Neoplasm
Lung = test: Reduction of [18F]-FDG uptake in GEMM mouse lung tumor model driven by KRasG12V oncogenic mutation lung after 45 mins by PET-CT analysis; assay type: functional, tissue-based
BT-474 = test: Antitumor activity against human BT474 cells with PI3Kalpha […] mutated xenografted in MF-1 nude mouse assessed as tumor growth inhibition at 10 mg/kg, po qd for weekly 5 days for 2 weeks; assay type: functional; details: read-out: GI
Homo sapiens = species on record: Homo sapiens; test: Selectivity ratio of IC50 for mTOR to IC50 for PI3Kalpha
MDR1 (P-gp), human [10] = test: Apparent permeability from apical to basolateral side in MDCK cells over expressing human MDR1 at 2 uM after 150 mins; assay type: ADME, cell-based, Canis lupus familiaris; details: dog
MDR1 (P-gp), human [11] = test: Efflux ratio of permeability from basolateral to apical side over apical to basolateral side in MDCK cells over expressing human MDR1 at 2 uM after 150 mins; assay type: ADME, cell-based, Canis lupus familiaris; details: dog
CYP3A4 = CYP3A4 (Homo sapiens, UniProt P08684); test: Inhibition of CYP3A4 at 10 uM; assay type: ADME
Chain of CYP3A4 (P08684 whole entry): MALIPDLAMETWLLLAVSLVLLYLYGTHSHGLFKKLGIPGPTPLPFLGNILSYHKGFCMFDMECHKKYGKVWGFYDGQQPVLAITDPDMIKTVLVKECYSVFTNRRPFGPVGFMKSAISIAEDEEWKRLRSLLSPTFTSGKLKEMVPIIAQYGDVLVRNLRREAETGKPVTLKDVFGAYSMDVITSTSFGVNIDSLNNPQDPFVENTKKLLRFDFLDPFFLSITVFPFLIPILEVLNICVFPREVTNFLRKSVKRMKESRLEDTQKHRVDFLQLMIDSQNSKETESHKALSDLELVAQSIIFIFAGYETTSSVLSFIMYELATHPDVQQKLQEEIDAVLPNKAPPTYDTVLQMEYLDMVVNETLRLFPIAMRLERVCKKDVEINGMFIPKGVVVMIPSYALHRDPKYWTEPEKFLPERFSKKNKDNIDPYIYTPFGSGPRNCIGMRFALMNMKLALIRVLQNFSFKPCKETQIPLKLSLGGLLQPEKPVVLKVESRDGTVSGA

CYP2D6 = CYP2D6 (Homo sapiens, UniProt P10635); test: Inhibition of CYP2D6 at 10 uM; assay type: ADME
Chain of CYP2D6 (P10635 whole entry): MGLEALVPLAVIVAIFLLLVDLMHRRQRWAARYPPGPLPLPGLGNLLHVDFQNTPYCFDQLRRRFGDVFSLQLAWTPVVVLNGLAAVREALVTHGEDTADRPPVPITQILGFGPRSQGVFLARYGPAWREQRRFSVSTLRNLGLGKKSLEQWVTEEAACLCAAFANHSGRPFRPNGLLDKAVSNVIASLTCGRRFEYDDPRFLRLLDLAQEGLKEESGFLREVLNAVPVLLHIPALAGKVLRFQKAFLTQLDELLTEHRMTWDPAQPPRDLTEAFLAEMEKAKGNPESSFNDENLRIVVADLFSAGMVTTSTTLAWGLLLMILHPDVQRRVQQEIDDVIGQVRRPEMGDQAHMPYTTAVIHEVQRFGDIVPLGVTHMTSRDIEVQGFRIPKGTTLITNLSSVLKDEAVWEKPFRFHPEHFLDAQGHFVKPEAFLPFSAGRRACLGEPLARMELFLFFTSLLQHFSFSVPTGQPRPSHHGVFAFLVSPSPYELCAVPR

CYP2C9 = CYP2C9 (Homo sapiens, UniProt P11712); test: Inhibition of CYP2C9 at 10 uM; assay type: ADME
Chain of CYP2C9 (P11712 whole entry): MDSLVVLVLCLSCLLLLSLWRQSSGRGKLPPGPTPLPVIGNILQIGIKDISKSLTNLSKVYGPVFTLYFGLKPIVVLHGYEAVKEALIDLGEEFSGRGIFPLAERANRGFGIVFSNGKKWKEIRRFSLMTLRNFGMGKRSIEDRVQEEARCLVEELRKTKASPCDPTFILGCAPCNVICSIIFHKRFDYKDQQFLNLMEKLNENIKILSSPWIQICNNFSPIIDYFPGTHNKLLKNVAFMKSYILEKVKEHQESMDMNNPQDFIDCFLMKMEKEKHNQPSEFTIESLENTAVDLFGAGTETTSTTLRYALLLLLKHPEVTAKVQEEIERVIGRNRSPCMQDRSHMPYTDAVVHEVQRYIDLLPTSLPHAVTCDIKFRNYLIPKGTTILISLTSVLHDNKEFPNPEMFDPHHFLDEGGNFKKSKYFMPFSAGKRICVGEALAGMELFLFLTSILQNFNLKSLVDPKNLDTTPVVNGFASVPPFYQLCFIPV

CYP1A2 = molecular target: T3, CYP1A2 (Homo sapiens, UniProt P05177); test: Inhibition of CYP1A2 at 10 uM; assay type: ADME
T3 sequence (P05177 whole entry): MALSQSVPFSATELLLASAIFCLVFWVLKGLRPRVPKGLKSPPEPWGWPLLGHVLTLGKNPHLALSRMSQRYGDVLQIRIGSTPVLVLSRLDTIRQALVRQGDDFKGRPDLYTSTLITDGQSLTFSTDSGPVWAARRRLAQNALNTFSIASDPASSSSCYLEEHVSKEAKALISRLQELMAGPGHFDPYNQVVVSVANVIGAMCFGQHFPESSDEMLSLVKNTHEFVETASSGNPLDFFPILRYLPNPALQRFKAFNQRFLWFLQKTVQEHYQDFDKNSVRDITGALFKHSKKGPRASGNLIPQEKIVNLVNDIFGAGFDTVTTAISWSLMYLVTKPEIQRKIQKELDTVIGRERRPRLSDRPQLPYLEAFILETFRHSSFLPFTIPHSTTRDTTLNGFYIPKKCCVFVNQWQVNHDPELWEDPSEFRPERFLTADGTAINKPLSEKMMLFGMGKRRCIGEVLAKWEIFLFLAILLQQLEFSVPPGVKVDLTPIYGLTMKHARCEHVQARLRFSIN

CYP2C19 = CYP2C19 (Homo sapiens, UniProt P33261); test: Inhibition of CYP2C19 at 10 uM; assay type: ADME
Chain of CYP2C19 (P33261 whole entry): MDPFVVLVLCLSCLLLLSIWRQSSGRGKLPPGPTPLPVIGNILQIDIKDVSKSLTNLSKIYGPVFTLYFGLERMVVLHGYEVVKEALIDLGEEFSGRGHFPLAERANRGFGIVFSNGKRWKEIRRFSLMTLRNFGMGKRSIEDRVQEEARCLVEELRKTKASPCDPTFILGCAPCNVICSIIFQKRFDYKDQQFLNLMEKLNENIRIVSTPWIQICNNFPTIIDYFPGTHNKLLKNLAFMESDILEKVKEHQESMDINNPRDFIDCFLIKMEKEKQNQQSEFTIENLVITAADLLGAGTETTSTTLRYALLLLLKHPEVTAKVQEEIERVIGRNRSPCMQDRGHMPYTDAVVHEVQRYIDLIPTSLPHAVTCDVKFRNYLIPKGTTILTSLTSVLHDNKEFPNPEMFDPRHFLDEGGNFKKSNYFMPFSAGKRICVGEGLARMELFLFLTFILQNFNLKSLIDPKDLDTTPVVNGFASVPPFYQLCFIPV

[12] = Metabolic stability in mouse liver microsomes assessed as compound remaining at 1 uM after 15 mins; assay type: ADME, Microsome; details: read-out: Stability
[13] = Metabolic stability in human liver microsomes assessed as compound remaining at 1 uM after 15 mins; assay type: ADME, Microsome; details: read-out: Stability

Row | Compound | IC50 [1] | IC50 [2] | IC50 [3] | also measured
1 | CN(C)CCCNC(=O)c1cn2cc(-c3cnc(N)nc3)nc(N3CCOCC3)c2n1 | 8.7 nM | > 5000 nM | 0.6 nM | –
2 | COCCCNC(=O)c1cn2cc(-c3cnc(N)nc3)nc(N3CCOCC3)c2n1 | 26 nM | > 5000 nM | 3.2 nM | –
3 | COCCNC(=O)c1cn2c(Cl)c(-c3cnc(N)nc3)nc(N3CCOCC3)c2n1 | 35.1 nM | – | 11.2 nM | –
4 | COCCNC(=O)c1cn2cc(-c3cnc(N)nc3)nc(N3CCOCC3)c2n1 | 14 nM | 2290 nM | 2.7 nM | –
5 | CN(C)CCCNC(=O)c1cn2cc(-c3cccc4[nH]ncc34)nc(N3CCOCC3)c2n1 | 429 nM | – | – | –
6 | Nc1ncc(-c2cn3cc(C(=O)NCCN4CCOCC4)nc3c(N3CCOCC3)n2)cn1 | 34.3 nM | > 5000 nM | 10.4 nM | –
7 | COCCNC(=O)c1nc2c(N3CCOCC3)nc(-c3cnc(N)nc3)cn2c1C | – | – | – | Ki [4]: 94.1 nM; Ki [5]: 8 nM; Ki [6]: 62.9 nM; Activity (Mus musculus [7]): >70%; inhibition in vivo at 25 mg/kg (Mus musculus [8]): 61%; Activity (Mus musculus [9]): Active; Activity (Lung): Active; inhibition in vivo at 10 mg/kg (BT-474): 58%
8 | Nc1ncc(-c2cn3cc(C(=O)N[C@H]4CC[C@H](O)CC4)nc3c(N3CCOCC3)n2)cn1 | 70 nM | 989 nM | – | Ratio IC50 (Homo sapiens): > 50
9 | NC(=O)c1cn2cc(-c3cnc(N)nc3)nc(N3CCOCC3)c2n1 | 1.8 nM | 237 nM | 0.4 nM | Papp A→B at 2.5 h, 2 µM (MDR1 (P-gp), human [10]): 15.4 ×10⁻⁶ cm/s; efflux ratio at 2.5 h, 2 µM (MDR1 (P-gp), human [11]): 0.9; inhibition at 10 µM (CYP3A4): 17%; inhibition at 10 µM (CYP2D6): 8%; inhibition at 10 µM (CYP2C9): 5%; inhibition at 10 µM (CYP1A2): 24%; inhibition at 10 µM (CYP2C19): 13%; remaining at 0.25 h, 1 µM [12]: 92%; remaining at 0.25 h, 1 µM [13]: 90%; Ratio IC50 (Homo sapiens): > 50
10 | CN(C)CCNC(=O)c1cn2cc(-c3cnc(N)nc3)nc(N3CCOCC3)c2n1 | 30.3 nM | > 5000 nM | 4.6 nM | –
11 | Nc1ncc(-c2cn3cc(C(=O)NC4CCOCC4)nc3c(N3CCOCC3)n2)cn1 | – | 751 nM | – | –
